Test results as given in article PMC3048380, “Crystal Structure of an Integron Gene Cassette-Associated Protein from Vibrio cholerae Identifies a Cationic Drug-Binding Module” (PLoS ONE, 2011).
Read-outs that look alike come from different tables or passages of the source.

What was measured:
(E134Q)Cass2 = (E134Q)Cass2 (Vibrio cholerae, UniProt D0VX23, E134Q); conditions: pH 7.5; read-out: Ligand binding affinity KD, Cass2 E134Q
Cass2 = Cass2 (Vibrio cholerae, UniProt D0VX23); conditions: tryptophan fluorescence quenching, 24°C, pH 7.5; read-out: Ligand binding affinity KD, Cass2 wt
Protocol: Fluorescence assays were used to detect binding of compounds to Cass2 and related mutants. Concentrated ligand solutions in Buffer B were titrated into a 400 µl sample of protein (180 nM in Buffer B) and Trp fluorescence monitored.
Fluorescence intensities were recorded at 22°C with a PerkinElmer LS55 fluorescence spectrophotometer using a 1 cm×0.2 cm quartz cell. […] Thus, fluorescence quenching was monitored by recording emission at 350 nm for all samples following excitation at 295 nm (slit widths 10 and 5 nm, respectively) with an integration time of 5 s. All readings were corrected for buffer background emission and sample dilution. Inner-filter effects were measured by titrating each compound into a 1.3 µM sample of tryptophan in Buffer B and the relative fluorescence quenching (ΔF) corrected as follows [64]:
ΔF = (F 0−F C (F W0/F WC))/F 0 where F 0 = fluorescence intensity of protein sample, F C = fluorescence intensity of protein with added compound, F W0 = fluorescence intensity of free tryptophan solution, F WC = fluorescence of tryptophan solution with added compound.
Standard deviation was calculated for the individual ΔF values from three independent experiments. […]

BmrR [1] = conditions: isothermal titration calorimetry binding assays; read-out: Ligand binding affinity KD, BmrR wt; cited from earlier work
BmrR [2] = conditions: equilibrium dialysis methods; read-out: Ligand binding affinity KD, BmrR wt; cited from earlier work

Molecule	Kd ((E134Q)Cass2) [nM]	Kd (Cass2) [nM]	Kd (BmrR [1]) [nM]	Kd (BmrR [2]) [nM]
benzalkonium chloride	300 ± 60	100		
c1ccc([P+](c2ccccc2)(c2ccccc2)c2ccccc2)cc1 [tetraphenylphosphonium (TPP), tetraphenylphosphonium chloride]	200 ± 130	200 ± 80	74000 ± 20500	100000
